In patent US6914045B2, “Glycopeptide antibiotics” (Wyeth Holdings Corporation, priority 2001, dated 2005):
In brackets after ≈: the same amount, converted by molar mass. Square brackets hold non-standard residues; d marks the D form. Peptide text beside a SMILES is read from it. * marks the point of attachment. ξ: configuration not given here. ξEnduracididine(βξ-OH,4'ξ) = N=C1NCC(C(O)C(N)C(=O)O)N1; X2 = OCC1OC(OC2C(CO)OC(*)C(O)C2O)C(O)C(O)C1O

Legend:
Test in all cases: in vitro antibacterial evaluation, MIC by broth dilution
Type in all cases: cell-based
[1] = system: Enterococcus sp.; details: broth dilution, 18 hours at 35° C.
Procedure, shortened: (§1)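 Read-out: the lowest concentration at which the test strain fails to grow. Serial dilutions (64-0.06 μg/mL) in Muller-Hinton II […], 5×10^5 CFU/mL inoculum, NCCLS M7-A2 procedure.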

[2] = system: Escherichia coli; details: 18 hours at 35° C.
Procedure, shortened: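 Step 1: dilute antibiotic across 64-0.06 μg/mL in Muller-Hinton II […]. Step 2: inoculate at 5×10^5 CFU/mL.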

[3] = system: Staphylococcus sp.; details: broth dilution, 18 hours at 35° C.
Procedure, shortened: as §1

[4] = system: Streptococcus sp.; details: broth dilution, 18 hours at 35° C.
Procedure, shortened: as §1

## N=C1NCC(C(O)C2NC(=O)C(Cc3ccc(OC4OC(CO)C(OC5OC(CO)C(O)C(O)C5O)C(O)C4O)cc3)NC(=O)C(Cc3ccccc3)NC(=O)CNC(=O)C(CO)NC(=O)C(C(O)C3CNC(=N)N3)NC2=O)N1 (stereo not drawn) [Example 296, Cyclo[glycylphenylalanyl-O-(4-O-hexopyranosylhexopyranosyl)tyrosyl-3-(2-iminoimidazolidin-4-yl)seryl-3-(2-iminoimidazolidin-4-yl)serylseryl]] (cyclo(GFY(X2)[ξEnduracididine(βξ-OH,4'ξ)][ξEnduracididine(βξ-OH,4'ξ)]S); configuration not given here)
[1]; Enterococcus avium (GC 4558)
  MIC Enterococcus avium (GC 4558): 128 µg/mL (≈ 114 µM)
[1]; Enterococcus faecalis (ATCC 29212)
  MIC Enterococcus faecalis (ATCC 29212): >128 µg/mL
[1]; Enterococcus faecalis (GC 4553)
  MIC Enterococcus faecalis (GC 4553): >128 µg/mL
[1]; Enterococcus faecalis (GC 4554)
  MIC Enterococcus faecalis (GC 4554): >128 µg/mL
[1]; Enterococcus faecalis (GC 6189)
  MIC Enterococcus faecalis (GC 6189): >128 µg/mL
[1]; Enterococcus faecium (GC 2243)
  MIC Enterococcus faecium (GC 2243): >128 µg/mL
[1]; Enterococcus faecium (GC 4556)
  MIC Enterococcus faecium (GC 4556): >128 µg/mL
[1]; Enterococcus faecium (GC 4557)
  MIC Enterococcus faecium (GC 4557): 128 µg/mL (≈ 114 µM)
[1]; strain ATCC 29212
  MIC Enterococcus faecalis (ATCC 29212): >128 µg/mL
[1]; strain GC 2242
  MIC Enterococcus faecalis (GC 2242): >128 µg/mL
[1]; strain GC 2243
  MIC Enterococcus faecium (GC 2243): >128 µg/mL
[1]; strain GC 2691
  MIC Enterococcus faecalis (GC 2691): >128 µg/mL
[1]; strain GC 3059
  MIC Enterococcus faecalis (GC 3059): >128 µg/mL
[1]; strain GC 4552
  MIC Enterococcus faecalis (GC 4552): >128 µg/mL
[1]; strain GC 4553
  MIC Enterococcus faecalis (GC 4553): >128 µg/mL
[1]; strain GC 4554
  MIC Enterococcus faecalis (GC 4554): >128 µg/mL
[1]; strain GC 4556
  MIC Enterococcus faecium (GC 4556): >128 µg/mL
[1]; strain GC 4557
  MIC Enterococcus faecium (GC 4557): 128 µg/mL (≈ 114 µM)
[1]; strain GC 4558
  MIC Enterococcus avium (GC 4558): 128 µg/mL (≈ 114 µM)
[1]; strain GC 6189
  MIC Enterococcus faecalis (GC 6189): >128 µg/mL
[2]; Escherichia coli (ATCC 25922)
  MIC Escherichia coli (ATCC 25922): >128 µg/mL
[2]; Escherichia coli (GC 4559)
  MIC Escherichia coli (GC 4559): >128 µg/mL
[2]; Escherichia coli (GC 4560)
  MIC Escherichia coli (GC 4560): >128 µg/mL
[3]
  MIC Coagulase Negative Staphylococcus (GC 4547): >128 µg/mL
  MIC Coagulase Negative Staphylococcus (GC 4548): >128 µg/mL
  MIC Coagulase Negative Staphylococcus (GC 4549): >128 µg/mL
  MIC Coagulase Negative Staphylococcus (GC 4551): >128 µg/mL
  MIC Staphylococcus aureus (ATCC 29213): >128 µg/mL
  MIC Staphylococcus aureus (GC 1131): >128 µg/mL
  MIC Staphylococcus aureus (GC 3051): >128 µg/mL
  MIC Staphylococcus aureus (GC 3053): >128 µg/mL
  MIC Staphylococcus aureus (GC 4541): >128 µg/mL
  MIC Staphylococcus aureus (GC 4542): >128 µg/mL
  MIC Staphylococcus aureus (GC 4544): >128 µg/mL
  MIC Staphylococcus aureus (GC 4545): >128 µg/mL
  MIC Staphylococcus aureus-SMITH (GC 4543): >128 µg/mL
  MIC Staphylococcus haemolyticus (GC 4546): >128 µg/mL
[3]; strain ATCC 29213
  MIC Staphylococcus aureus (ATCC 29213): >128 µg/mL
[3]; strain GC 1131
  MIC Staphylococcus aureus (GC 1131): >128 µg/mL
[3]; strain GC 3051
  MIC Staphylococcus aureus (GC 3051): >128 µg/mL
[3]; strain GC 3053
  MIC Staphylococcus aureus (GC 3053): >128 µg/mL
[3]; strain GC 4541
  MIC Staphylococcus aureus (GC 4541): >128 µg/mL
[3]; strain GC 4542
  MIC Staphylococcus aureus (GC 4542): >128 µg/mL
[3]; strain GC 4544
  MIC Staphylococcus aureus (GC 4544): >128 µg/mL
[3]; strain GC 4545
  MIC Staphylococcus aureus (GC 4545): >128 µg/mL
[3]; strain GC 4546
  MIC Staphylococcus haemolyticus (GC 4546): >128 µg/mL
[3]; strain GC 4547
  MIC Coagulase Negative Staphylococcus (GC 4547): >128 µg/mL
[3]; strain GC 4548
  MIC Coagulase Negative Staphylococcus (GC 4548): >128 µg/mL
[3]; strain GC 4549
  MIC Coagulase Negative Staphylococcus (GC 4549): >128 µg/mL
[3]; strain GC 4551
  MIC Coagulase Negative Staphylococcus (GC 4551): >128 µg/mL
[3]; strain SMITH GC 4543
  MIC Staphylococcus aureus-SMITH (GC 4543): >128 µg/mL
[4]; strain ATCC 6301
  MIC Streptococcus pneumoniae (ATCC 6301): >128 µg/mL
[4]; strain GC 1894
  MIC Streptococcus pneumoniae (GC 1894): 128 µg/mL (≈ 114 µM)
[4]; strain GC 4563
  MIC Streptococcus pyogenes (GC 4563): >128 µg/mL
[4]; strain GC 4564
  MIC Streptococcus agalactiae (GC 4564): >128 µg/mL
[4]; strain GC 4565
  MIC Streptococcus pneumoniae (GC 4565): >128 µg/mL
